# From patent US5276023A, “19-nor-steroid esters” (Roussel Uclaf, priority 1989, dated 1994)
# Experiment: solubility in water
# Type: physicochemical
compound,measurement,value
"CC#C[C@]1(OC(=O)CCC(=O)O)CC[C@H]2[C@@H]3CCC4=CC(=O)CCC4=C3[C@@H](c3ccc(N(C)C(C)C)cc3)C[C@@]21C [Example 18, Sodium and 11β-[4(N-methyl-isopropylamino)-phenyl]-17α-(1-propynyl)-Δ^4,9-estradien-3-one-17β-yl succinate]",solubility,> 250 mg/mL
